Reference: patent publication US11008325B2, “Inhibitors of cancer invasion, attachment, and/or metastasis” (VIRGINIA COMMONWEALTH UNIVERSITY, priority 2016, dated 2021)
Read-outs that look alike come from different tables or passages of the source.

Tests used:
mouse xenograft model = details: in vivo; cited from earlier work
human cancer cell lines = details: cited from earlier work
[1] = molecular target: T1, MDA-9 PDZ12 tandem domain (PDZ1) (Homo sapiens, UniProt O00560); assay: NMR [15N,1H] HSQC chemical shift change and titration binding; details: for Binding affinity ranking: chemical shift change (DPPM) of backbone amide of residue 147, 50 μM PDZ12, compound at 1:1 molar ratio
T1 construct: the MDA-9/Syntenin construct used for the screen contains both PDZ domains; made in house
T1 sequence (O00560 110-274): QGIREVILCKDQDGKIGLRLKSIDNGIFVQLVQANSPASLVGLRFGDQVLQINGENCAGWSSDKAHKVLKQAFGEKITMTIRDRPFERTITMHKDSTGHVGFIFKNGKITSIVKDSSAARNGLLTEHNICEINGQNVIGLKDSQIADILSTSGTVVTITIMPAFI
Method: FIGS. 4A-4E. FIG. 4A. […] FIG. 4B. Superposition of 2D [^15N, ^1H]-HSQC spectra of 50 μM MDA-9 PDZ12 tandem domain in the absence and presence of 350 μM 113B7. FIG. 4C. Binding curve and representative spectra for the titration of 113B7 against MDA-9 PDZ12 tandem domain. Top: Zoom of box region in FIG. 4B after titrating 113B7 into Mda9 PDZ, tandem domain. […] Bottom: Titration curve of 113B7 for residue A147. […] FIG. 4D. […] FIG. 4E. Docked structure of 113B7 in complex with MDA-9 PDZ tandem domain (PDB: 1W9E). The pose was obtained with GOLD. Two PDZ domains of MDA-9 are labeled.
NMR based screening of an house assembled fragment library of about 5,000 compounds using [^15N,^1H] […] The proposed docked structure of PDZ1i in the PDZ1 domain and interdomain of MDA-9/Syntenin is shown in FIGS. 4A-4E and FIG. 5, while the chemical structure of PDZ1i is also shown in FIGS. 4A-4E and FIG. 5.
In all binding assays, the MDA-9/Syntenin construct used for the screen contains both PDZ domains. Constructs uniformly labeled with ^15N and ^13C or ^13C-Met selectively labeled are used for binding, mapping and structural studies. These same proteins are used for ITC binding studies.

migration (SAR, Table 4) = format: cell-based
[2] = test system: Dishevelled PDZ/Fz7 Wnt receptor; details: Xenopus embryos; cited from earlier work
[3] = NMR titration following backbone amide of residue 147, read-out: Kd values

Molecule | Kd [1, 3] [µM] | Binding affinity ranking [1] | also measured
CCCCC(O)C1Nc2cc(C)c(C(=O)O)cc2C1CCc1ccccc1 (stereo not shown) | – | – | tumor growth (mouse xenograft model): tumor growth inhibition in a mouse xenograft model; apoptosis (human cancer cell lines): Induction of apoptosis in human cancer cell lines
Cc1cc(=O)n2nc(COc3ccccc3)nc2[nH]1 [30A9] | 197 | 4 (4 for DPPM 0.06-0.08) | –
Cc1cc(=O)n2nc(C(=O)Nc3ccc(O)cc3)nc2[nH]1 [112D11] | 245 | 2 (2 for DPPM 0.02-0.04) | –
Cc1cc(=O)n2nc(C(=O)Nc3ccc(N)cc3)nc2[nH]1 [112E7] | 944 | 1 (1 for DPPM 0.00-0.02) | –
O=C(Nc1ccc(O)cc1)c1nc2[nH]c3c(c(=O)n2n1)CCC3 [112E12] | 1610 | 1 (1 for DPPM 0.00-0.02) | –
Cc1cc(O)n2nc(C(=O)Nc3ccc(O)cc3)nc2n1 [112F1] | – | 1 (1 for DPPM 0.00-0.02) | –
O=C(Nc1ccc(O)c(Cl)c1)c1nc2[nH]c3c(c(=O)n2n1)CCC3 [112F10] | – | 4 (4 for DPPM 0.06-0.08) | –
O=C(Nc1cc(Cl)c(O)c(Cl)c1)c1nc2[nH]c3c(c(=O)n2n1)CCC3 [112F11] | – | 5 (5 for DPPM 0.08-0.1) | –
O=C(Nc1ccc(O)c(F)c1)c1nc2[nH]c3c(c(=O)n2n1)CCC3 [112F12] | 166 | 2 (2 for DPPM 0.02-0.04) | –
Cc1cc(=O)n2nc(C(=O)Nc3cc(Cl)c(O)c(Cl)c3)nc2[nH]1 [112G1] | 57.3 | 6 (6 for DPPM above 0.1) | –
Cc1cc(=O)n2nc(C(=O)Nc3ccc(O)c(F)c3)nc2[nH]1 [112G2] | 147 | 4 (4 for DPPM 0.06-0.08) | –
O=C(Nc1ccc(O)c(Cl)c1)c1nc2[nH]c3c(c(=O)n2n1)CCC3 [112G3] | 119 | – | –
Cc1cc(=O)n2nc(C(=O)Nc3cc(Cl)c(N)cc3Cl)nc2[nH]1 [112G4] | 34.3 | 6 (6 for DPPM above 0.1) | Kd ([1]; fragment hits, FIG. 55B, read-out: Kd): ~300 µM
Nc1ccc(NC(=O)c2nc3[nH]c4c(c(=O)n3n2)CCC4)cc1 [112G11] | 263 | 2 (2 for DPPM 0.02-0.04) | –
Cc1cc(NC(=O)c2nc3[nH]c4c(c(=O)n3n2)CCC4)c(C)cc1NC(=O)CCc1nnc(-c2cccc(C(F)(F)F)c2)o1 [112H9] | 38.3 | 2 (2 for DPPM 0.02-0.04) | Kd ([1]; estimated by NMR titration in 2D HSQC experiments (Table 4), read-out: Kd): 38 µM; % migr. (migration (SAR, Table 4)): 24%
Cc1c(C)c(NC(=O)c2nc3[nH]c4c(c(=O)n3n2)CCC4)c(C)c(C)c1N [113B8] | 151 | 5 (5 for DPPM 0.08-0.1) | –
Cc1cc(NC(=O)c2nc3[nH]c4c(c(=O)n3n2)CCC4)c(C)cc1NC(=O)Cc1ccc(-c2ccccc2)cc1 [113B9] | – | N.B. | –
Cc1cc(NC(=O)c2nc3[nH]c4c(c(=O)n3n2)CCC4)c(C)cc1NC(=O)CCc1nnc(-c2ccsc2)o1 [113B11] | – | 3 (3 for DPPM 0.04-0.06) | –

Molecule | Kd [1, 3] [µM] | Binding affinity ranking [1] | also measured
COc1ccc(Br)c(-c2nnc(CCC(=O)Nc3cc(C)c(NC(=O)c4nc5[nH]c6c(c(=O)n5n4)CCC6)cc3C)o2)c1 [113B12] | – | 1 (1 for DPPM 0.00-0.02) | –
CC(NC(=O)C(OC(=O)C(C)NC(=O)OC(C)(C)C)C(C)C)C(=O)OC(C(=O)O)C(C)C (stereo not shown) [NSC-668036] | – | – | Wnt3A-induced canonical Wnt signaling [2]: In Xenopus embryos, NSC-668036 inhibits the canonical Wnt signaling induced by Wnt3A (34).
Cc1cc(=O)n2nc(NCc3ccccc3)nc2[nH]1 [cmpd1] | – | 2 (2 for DPPM 0.02-0.04) | –
Cc1cc(=O)n2nc(CCc3ccccc3)nc2[nH]1 [cmpd2] | – | 3 (3 for DPPM 0.04-0.06) | –
O=c1c2c([nH]c3nc(NCc4cccs4)nn13)CCC2 [cmpd3] | – | 1 (1 for DPPM 0.00-0.02) | –
Cc1cc(=O)n2nc(SCc3ccccc3)nc2[nH]1 [cmpd4] | – | 4 (4 for DPPM 0.06-0.08) | –
Cc1[nH]c2nc(C(=O)NCc3ccccc3)nn2c(=O)c1C [cmpd5] | – | 2 (2 for DPPM 0.02-0.04) | –
O=c1[nH]c2sc3c(c2c2ncnn12)CCCC3 [cmpd6] | – | 1 (1 for DPPM 0.00-0.02) | –
Cc1cc(=O)n2nc(C(=O)Nc3ccc4c(c3)OCCO4)nc2[nH]1 [cmpd7] | – | 2 (2 for DPPM 0.02-0.04) | –
COc1cccc(NC(=O)c2nc3[nH]c(C)cc(=O)n3n2)c1 [cmpd8] | – | 3 (3 for DPPM 0.04-0.06) | –
Cc1cc(=O)n2nc(C(=O)Nc3ccc4c(c3)OCO4)nc2[nH]1 [cmpd9] | – | 3 (3 for DPPM 0.04-0.06) | –
Cc1cc(=O)n2nc(C(=O)Nc3cccc(Cl)c3)nc2[nH]1 [cmpd10] | 151 | 4 (4 for DPPM 0.06-0.08) | –
O=c1c2c([nH]c3nc(COc4ccccc4)nn13)CCC2 [cmpd11] | 171 | 5 (5 for DPPM 0.08-0.1) | –
O=c1c2c([nH]c3nc(CCc4ccccc4)nn13)CCC2 [cmpd13] | – | 3 (3 for DPPM 0.04-0.06) | –
CCCc1cc(=O)n2nc(COc3ccccc3)nc2[nH]1 [cmpd14] | – | 1 (1 for DPPM 0.00-0.02) | –
GSKTLQSWRRYH [Fz7 peptide] | – | – | Wnt3A-induced canonical Wnt signaling [2]: peptide attenuates Wnt3A-induced
SGKLKLMTTV [Dapper peptide] | – | – | Wnt3A-induced canonical Wnt signaling [2]: peptide attenuates Wnt3A-induced
